Laboratory results as given in patent US10894784B2, “Heteroarylbenzimidazole compounds” (BAYER PHARMA AKTIENGESELLSCHAFT, priority 2015, dated 2021).
“And” between values parts separate entries of the source, which are not always exact repeats. Identical values can stand only once.

biological target: TBK1 (Homo sapiens (Human), UniProt Q9UHD2); experiment: TBK1 low ATP kinase assay (in vitro assay 1); format: biochemical; settings: in vitro assay 1, read-out: TBK1 low ATP kinase assay IC50
Sequence (Q9UHD2 whole entry): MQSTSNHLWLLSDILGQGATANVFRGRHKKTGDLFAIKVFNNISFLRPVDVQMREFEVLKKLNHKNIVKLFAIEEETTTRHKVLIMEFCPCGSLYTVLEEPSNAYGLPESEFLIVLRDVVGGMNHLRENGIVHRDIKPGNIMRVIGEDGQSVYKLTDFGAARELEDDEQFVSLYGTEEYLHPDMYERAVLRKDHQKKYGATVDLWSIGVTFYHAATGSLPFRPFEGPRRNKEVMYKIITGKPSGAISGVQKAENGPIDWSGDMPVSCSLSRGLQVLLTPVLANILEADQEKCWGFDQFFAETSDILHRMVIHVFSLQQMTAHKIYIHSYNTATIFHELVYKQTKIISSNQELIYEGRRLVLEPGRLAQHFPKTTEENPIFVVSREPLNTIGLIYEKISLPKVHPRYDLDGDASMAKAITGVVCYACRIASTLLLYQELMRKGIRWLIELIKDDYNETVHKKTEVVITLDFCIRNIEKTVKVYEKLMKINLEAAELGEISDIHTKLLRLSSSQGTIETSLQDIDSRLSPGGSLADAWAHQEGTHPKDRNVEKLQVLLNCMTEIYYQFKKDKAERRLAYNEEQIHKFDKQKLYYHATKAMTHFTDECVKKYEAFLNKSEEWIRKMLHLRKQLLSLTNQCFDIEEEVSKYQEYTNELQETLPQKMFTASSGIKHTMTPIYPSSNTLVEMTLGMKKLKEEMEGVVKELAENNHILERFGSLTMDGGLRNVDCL

Structure (SMILES) | IC50
CCOc1cnc(C)cc1-c1ccc2nc(Nc3cc(CN4CCN(C(=O)CC(F)(F)F)CC4)ccn3)[nH]c2c1 [Example 09.01, 1-{4-[(2-{[6-(5-ethoxy-2-methylpyridin-4-yl)-1H-benzimidazol-2-yl]amino}pyridin-4-yl)methyl]piperazin-1-yl}-3,3,3-trifluoropropan-1-one] | 251 nM
CCOc1cnc(C)cc1-c1ccc2nc(Nc3cc(CN4CCN(C(=O)C5CC5)CC4)ccn3)[nH]c2c1 [Example 09.02, cyclopropyl{4-[(2-{[6-(5-ethoxy-2-methylpyridin-4-yl)-1H-benzimidazol-2-yl]amino}pyridin-4-yl)methyl]piperazin-1-yl}methanone] | 297 nM
CCOc1cnc(C)cc1-c1ccc2nc(Nc3cc(CN4CCN(C(=O)CC5CC5)CC4)ccn3)[nH]c2c1 [Example 09.03, 2-cyclopropyl-1-{4-[(2-{[6-(5-ethoxy-2-methylpyridin-4-yl)-1H-benzimidazol-2-yl]amino}pyridin-4-yl)methyl]piperazin-1-yl}ethanone] | 324 nM
CCOc1cnc(C)cc1-c1ccc2nc(Nc3cc(CN4CCN(C(=O)C5CCC5)CC4)ccn3)[nH]c2c1 [Example 09.04, cyclobutyl{4-[(2-{[6-(5-ethoxy-2-methylpyridin-4-yl)-1H-benzimidazol-2-yl]amino}pyridin-4-yl)methyl]piperazin-1-yl}methanone] | 352 nM
COc1nccc(-c2ccc3nc(Nc4cc(CN5CCN(C(=O)C6CC6)CC5)ccn4)[nH]c3c2)c1C [Example 10.01, cyclopropyl{4-[(2-{[6-(2-methoxy-3-methylpyridin-4-yl)-1H-benzimidazol-2-yl]amino}pyridin-4-yl)methyl]piperazin-1-yl}methanone] | 2260 nM
Cc1c(-c2ccc3nc(Nc4cc(CN5CCN(C(=O)C6CC6)CC5)ccn4)[nH]c3c2)ccnc1OC(C)C [Example 11.01, cyclopropyl(4-{[2-({6-[3-methyl-2-(propan-2-yloxy)pyridin-4-yl]-1H-benzimidazol-2-yl}amino)pyridin-4-yl]methyl}piperazin-1-yl)methanone] | 3610 nM
Cc1cccc(-c2ccc3nc(Nc4cc(CN5CCN(C(=O)OC(C)(C)C)CC5)ccn4)[nH]c3c2)n1 [Example 12.01, tert-butyl 4-[(2-{[6-(6-methylpyridin-2-yl)-1H-benzimidazol-2-yl]amino}pyridin-4-yl)methyl]piperazine-1-carboxylate] | > 20000 nM and 10000 nM and 8120 nM
Cc1cccc(-c2ccc3nc(Nc4cc(CN5CCN(C(=O)C6CC6)CC5)ccn4)[nH]c3c2)n1 [Example 12.02, cyclopropyl{4-[(2-{[6-(6-methylpyridin-2-yl)-1H-benzimidazol-2-yl]amino}pyridin-4-yl)methyl]piperazin-1-yl}methanone] | 924 nM
COc1ccc(-c2ccc3nc(Nc4cc(CN5CCN(C(=O)OC(C)(C)C)CC5)ccn4)[nH]c3c2)cn1 [Example 13.01, tert-butyl 4-[(2-{[6-(6-methoxypyridin-3-yl)-1H-benzimidazol-2-yl]amino}pyridin-4-yl)methyl]piperazine-1-carboxylate] | 1250 nM
COc1ccc(-c2ccc3nc(Nc4cc(CN5CCN(C(=O)C6CC6)CC5)ccn4)[nH]c3c2)cn1 [Example 13.02, cyclopropyl{4-[(2-{[6-(6-methoxypyridin-3-yl)-1H-benzimidazol-2-yl]amino}pyridin-4-yl)methyl]piperazin-1-yl}methanone] | 166 nM
COc1ccc(-c2ccc3nc(Nc4cc(CN5CCN(C(=O)CC(F)(F)F)CC5)ccn4)[nH]c3c2)cn1 [Example 13.03, 3,3,3-trifluoro-1-{4-[(2-{[6-(6-methoxypyridin-3-yl)-1H-benzimidazol-2-yl]amino}pyridin-4-yl)methyl]piperazin-1-yl}propan-1-one] | 190 nM
COc1ccncc1-c1ccc2nc(Nc3cc(CN4CCN(C(=O)C5CCC5)CC4)ccn3)[nH]c2c1 [Example 14.01, cyclobutyl{4-[(2-{[6-(4-methoxypyridin-3-yl)-1H-benzimidazol-2-yl]amino}pyridin-4-yl)methyl]piperazin-1-yl}methanone] | 195 nM
COc1ccncc1-c1ccc2nc(Nc3cc(CN4CCN(C(=O)CC5CC5)CC4)ccn3)[nH]c2c1 [Example 14.02, 2-cyclopropyl-1-{4-[(2-{[6-(4-methoxypyridin-3-yl)-1H-benzimidazol-2-yl]amino}pyridin-4-yl)methyl]piperazin-1-yl}ethanone] | 283 nM
COc1ccncc1-c1ccc2nc(Nc3cc(CN4CCN(C(=O)C5CC5)CC4)ccn3)[nH]c2c1 [Example 14.03, cyclopropyl{4-[(2-{[6-(4-methoxypyridin-3-yl)-1H-benzimidazol-2-yl]amino}pyridin-4-yl)methyl]piperazin-1-yl}methanone] | 550 nM
COc1ncccc1-c1ccc2nc(Nc3cc(CN4CCN(C(=O)CC(F)(F)F)CC4)ccn3)[nH]c2c1 [Example 15.01, 3,3,3-trifluoro-1-{4-[(2-{[6-(2-methoxypyridin-3-yl)-1H-benzimidazol-2-yl]amino}pyridin-4-yl)methyl]piperazin-1-yl}propan-1-one] | 339 nM
COc1ncccc1-c1ccc2nc(Nc3cc(CN4CCN(C(=O)CC5CC5)CC4)ccn3)[nH]c2c1 [Example 15.02, 2-cyclopropyl-1-{4-[(2-{[6-(2-methoxypyridin-3-yl)-1H-benzimidazol-2-yl]amino}pyridin-4-yl)methyl]piperazin-1-yl}ethanone] | 401 nM
COc1ncccc1-c1ccc2nc(Nc3cc(CN4CCN(C(=O)C5CC5)CC4)ccn3)[nH]c2c1 [Example 15.03, cyclopropyl{4-[(2-{[6-(2-methoxypyridin-3-yl)-1H-benzimidazol-2-yl]amino}pyridin-4-yl)methyl]piperazin-1-yl}methanone] | 3810 nM
Cc1noc(-c2ccc3nc(Nc4cc(CN5CCN(C(=O)OC(C)(C)C)CC5)ccn4)[nH]c3c2)n1 [Example 16.01.01, tert-butyl 4-[(2-{[6-(3-methyl-1,2,4-oxadiazol-5-yl)-1H-benzimidazol-2-yl]amino}pyridin-4-yl)methyl]piperazine-1-carboxylate] | 230 nM
Cc1noc(-c2ccc3nc(Nc4cc(CN5CCN(C(=O)CC(F)(F)F)CC5)ccn4)[nH]c3c2)n1 [Example 16.01.02, 3,3,3-trifluoro-1-{4-[(2-{[6-(3-methyl-1,2,4-oxadiazol-5-yl)-1H-benzimidazol-2-yl]amino}pyridin-4-yl)methyl]piperazin-1-yl}propan-1-one] | 109 nM
Cc1noc(-c2ccc3nc(Nc4cc(CN5CCN(C(=O)CC6CC6)CC5)ccn4)[nH]c3c2)n1 [Example 16.01.03, 2-cyclopropyl-1-{4-[(2-{[6-(3-methyl-1,2,4-oxadiazol-5-yl)-1H-benzimidazol-2-yl]amino}pyridin-4-yl)methyl]piperazin-1-yl}ethanone] | 115 nM
Cc1noc(-c2ccc3nc(Nc4cc(CN5CCN(C(=O)C6CC6)CC5)ccn4)[nH]c3c2)n1 [Example 16.01.04, cyclopropyl{4-[(2-{[6-(3-methyl-1,2,4-oxadiazol-5-yl)-1H-benzimidazol-2-yl]amino}pyridin-4-yl)methyl]piperazin-1-yl}methanone] | 67 nM
Cc1noc(-c2ccc3nc(Nc4cc(CN5CCN(C(=O)C6CCC6)CC5)ccn4)[nH]c3c2)n1 [Example 16.01.05, cyclobutyl{4-[(2-{[6-(3-methyl-1,2,4-oxadiazol-5-yl)-1H-benzimidazol-2-yl]amino}pyridin-4-yl)methyl]piperazin-1-yl}methanone] | 146 nM
Cc1noc(-c2ccc3nc(Nc4cc(CN5CCN(C(=O)C(C)(C)C)CC5)ccn4)[nH]c3c2)n1 [Example 16.01.06, 2,2-dimethyl-1-{4-[(2-{[6-(3-methyl-1,2,4-oxadiazol-5-yl)-1H-benzimidazol-2-yl]amino}pyridin-4-yl)methyl]piperazin-1-yl}propan-1-one] | 208 nM
Cc1noc(-c2ccc3nc(Nc4cc(CN5C[C@@H](C)N(C(=O)OC(C)(C)C)C[C@@H]5C)ccn4)[nH]c3c2)n1 [Example 16.02.01, tert-butyl (2R,5S)-2,5-dimethyl-4-[(2-{[6-(3-methyl-1,2,4-oxadiazol-5-yl)-1H-benzimidazol-2-yl]amino}pyridin-4-yl)methyl]piperazine-1-carboxylate] | 2260 nM
Cc1noc(-c2ccc3nc(Nc4cc(CN5C[C@@H](C)N(C(=O)CC(F)(F)F)C[C@@H]5C)ccn4)[nH]c3c2)n1 [Example 16.02.02, 1-{(2R,5S)-2,5-dimethyl-4-[(2-{[6-(3-methyl-1,2,4-oxadiazol-5-yl)-1H-benzimidazol-2-yl]amino}pyridin-4-yl)methyl]piperazin-1-yl}-3,3,3-trifluoropropan-1-one] | 335 nM
Cc1noc(-c2ccc3nc(Nc4cc(CN5C[C@@H](C)N(C(=O)CC6CC6)C[C@@H]5C)ccn4)[nH]c3c2)n1 [Example 16.02.03, 2-cyclopropyl-1-{(2R,5S)-2,5-dimethyl-4-[(2-{[6-(3-methyl-1,2,4-oxadiazol-5-yl)-1H-benzimidazol-2-yl]amino}pyridin-4-yl)methyl]piperazin-1-yl}ethanone] | 227 nM
Cc1noc(-c2ccc3nc(Nc4cc(CN5C[C@@H](C)N(C(=O)C6CC6)C[C@@H]5C)ccn4)[nH]c3c2)n1 [Example 16.02.04, cyclopropyl{(2R,5S)-2,5-dimethyl-4-[(2-{[6-(3-methyl-1,2,4-oxadiazol-5-yl)-1H-benzimidazol-2-yl]amino}pyridin-4-yl)methyl]piperazin-1-yl}methanone] | 268 nM
Cc1noc(-c2ccc3nc(Nc4cc(CN5C[C@@H](C)N(C(=O)C6CCC6)C[C@@H]5C)ccn4)[nH]c3c2)n1 [Example 16.02.05, cyclobutyl{(2R,5S)-2,5-dimethyl-4-[(2-{[6-(3-methyl-1,2,4-oxadiazol-5-yl)-1H-benzimidazol-2-yl]amino}pyridin-4-yl)methyl]piperazin-1-yl}methanone] | 405 nM
Cc1noc(-c2ccc3nc(Nc4cc(CN5CCN(C(=O)OC(C)(C)C)C[C@H]5C)ccn4)[nH]c3c2)n1 [Example 16.03.01, tert-butyl (3R)-3-methyl-4-[(2-{[6-(3-methyl-1,2,4-oxadiazol-5-yl)-1H-benzimidazol-2-yl]amino}pyridin-4-yl)methyl]piperazine-1-carboxylate] | 125 nM
